Test results: paper PMC9078569, “Understanding the inhibitory mechanism of tea polyphenols against tyrosinase using fluorescence spectroscopy, cyclic voltammetry, oximetry, and molecular simulations” (RSC Advances, 2018)
Read-outs that look alike come from different tables or passages of the source.

Columns and labels:
[1] = system: Tyrosinase (TYR, EC1.14.18.1) from mushroom; assay: Oximetry: oxygen utilization in oxidation of TPs by tyrosinase and of L-DOPA by the remaining tyrosinase; type: biochemical; conditions: for inactivation rate (k2) of tyrosinase / oxidation rate (k1): fit of oxygen utilization curve, 30 °C, pH 6.5; for partition ratio (r): molecules of inhibitor required to inactivate one molecule of tyrosinase: intercept on abscissa, ESI Fig. 3
Method: The oxygen consumption in the process of tyrosinase interacting with TPs was monitored with the reported method.[28] Briefly, 0.4 mL of 8.2 mM TP was added to 19.2 mL phosphate buffer (pH 6.5). After equilibrating at 30 °C for 5 min, 0.4 mL of 500 unit per ml tyrosinase was injected to TP solution under continuous stirring. The decrease of oxygen was monitored with the dissolved oxygen meter. In order to evaluate the remaining activity of tyrosinase, L-DOPA was added to the above mixture of tyrosinase and TP after 5 minutes if no oxygen decreasing was observed, followed by monitoring the secondary oxygen utilization in the oxidation reaction of L-DOPA catalyzed by the remaining tyrosinase. The concentration of L-DOPA was 194 μM.
To further reveal tyrosinase inhibitory mechanisms of TPs, we monitored oxygen utilization against time starting from the injecting of TPs into tyrosinase solution using oximetry. The corresponding time-dependent curves of oxygen utilization are depicted in Fig. 4A. In the initial stage, the increase of oxygen utilization for TPs further corroborates that TPs could be oxidized by tyrosinase like-as substrate manner. The time-dependent curves of oxygen utilization can be better fitted with the following equation:[28]4 [drawing 4] where, Ut is the oxygen consumption at time t; E0 is the initial amount of tyrosinase; k1 and k2 are the oxidation rate and the inactivation rate of tyrosinase, respectively. As listed in Table 2, ECG and catechin can inactivate tyrosinase with inactivation rate (k2) of 0.018 and 0.016, respectively, while the inactivation rate of EGCG is ∼4 times lower than catechin. […] Furthermore, the catecholase activities of residual tyrosinase were evaluated by the oxygen utilization of L-DOPA. […] The slope (K) of oxygen consumption curve is positive proportional to the amount of residual tyrosinase.[64] Obviously, the remaining quantity of tyrosinase for EGCG is largest, while the residual amount is least for ECG. […] In this inactivation pathway, the catechol is converted to an intermediate by deprotonation and reductive elimination along with the leaving of forming Cu(0) from catalytic center, leading to the irreversible inactivation of tyrosinase.[28] However, the oxidation of ring B on EGCG or ring G on both ECG and EGCG (the pyrogallol group) catalyzed by tyrosinase should be competitive with the natural substrate (such as L-DOPA) through the diphenolase-like catalytic pathway (as shown in Fig. 5), because the three adjacent hydroxyl groups on the pyrogallol group having larger steric hindrance and worse orientation were unfavorable to the insert of additional oxygen on the aromatic ring.[28] Tyrosinase at last can be reactivated after catalyzing the oxidation of two molecules of EGCG, accounting for the lower inhibitory activity of EGCG than ECG and catechin. […] As shown in ESI Fig. 3 ^† (the intercept on abscissa), inactivating one molecule of tyrosinase requires 14.7 molecules of ECG or 38.7 molecules of catechin, being better consistent with their inactivation rate. The lower inactivation efficiency against tyrosinase explained that catechin has weaker inhibitory activity than ECG.

[2] = system: Tyrosinase (TYR, EC1.14.18.1) from mushroom; assay: Fluorescence quenching of tyrosinase by TPs (Stern–Volmer analysis); type: binding; conditions: for bimolecular quenching constant (κq): calculated by KSV/τ0, τ0 10^−8 s; for Stern–Volmer quenching constant (KSV): excited at 274 nm, pH 6.5; for binding constant (KA): static quenching equation
Method: The fluorescence spectrum of the TP-TYR complex was measured according to our previous work.[27] Briefly, 10 mM TP was titrated into 3 mL potassium phosphate buffer (pH 6.5) containing 10 units tyrosinase under continuous stirring and nitrogen exists. After 5 minutes, tyrosinase was excited at 274 nm and the emission spectrum over the range of 280 nm to 400 nm was detected through a 3 nm slit. The emission spectrum of the tyrosinase solution was also directly measured as a background.
Fluorescence quenching mechanism is usually divided into static or dynamic manner.[46] To clarify the quenching mechanism of the interaction between tyrosinase and TPs, we analyzed the fluorescence quenching data using the Stern–Volmer equation.[47]2 [drawing 2] where F0 and F are the relative fluorescence intensities before and after the addition of inhibitor, respectively; κq is the bimolecular quenching rate constant; τ0 is the fluorescence lifetime at 10^−8 s for most biological macromolecules,[48] [Q] is the concentration of inhibitor and KSV is the Stern–Volmer quenching constant. The Stern–Volmer quenching constant (KSV) determined by linear regression of a curve of F0/F versus [Q] was plotted in Fig. 2 (inset). As listed in Table 1, the KSV value of ECG with less one hydroxyl group on ring B is much higher than that of EGCG. Good linear relationships in three Stern–Volmer plots of TPs are generally the indication of a single type of quenching manner. The calculated κq values by KSV/τ0 are 0.48 × 10^12, 4.10 × 10^12 and 3.13 × 10^12 M^−1 for catechin, ECG and EGCG, respectively. […] For static quenching mechanism, the binding site number (n) and association constant (KA) can be obtained by the following equation:[49]3 [drawing 3]

[3] = target: T1, Tyrosinase (TYR, EC1.14.18.1) from mushroom (Agaricus bisporus, UniProt C7FF04); assay: Inhibition of diphenolase activity of tyrosinase with L-DOPA as substrate (spectroscopy at 475 nm; HPLC for catechin); type: biochemical
T1 construct: purchased Sigma-Aldrich
T1 sequence (C7FF04 1-392): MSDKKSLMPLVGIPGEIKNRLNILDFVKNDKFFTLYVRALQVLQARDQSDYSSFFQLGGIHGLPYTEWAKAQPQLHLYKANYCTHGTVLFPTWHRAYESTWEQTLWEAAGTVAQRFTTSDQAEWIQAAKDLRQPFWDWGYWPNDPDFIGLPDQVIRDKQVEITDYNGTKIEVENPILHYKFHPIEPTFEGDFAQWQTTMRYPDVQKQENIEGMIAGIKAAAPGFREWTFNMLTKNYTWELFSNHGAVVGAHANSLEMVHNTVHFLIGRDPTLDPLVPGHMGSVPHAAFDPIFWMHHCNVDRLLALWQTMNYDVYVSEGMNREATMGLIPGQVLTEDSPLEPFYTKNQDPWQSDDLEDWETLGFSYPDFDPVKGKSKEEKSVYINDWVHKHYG
Method: The inhibitory activity of the TPs, i.e., catechin, ECG, and EGCG, and a positive control, i.e., KA, against diphenolase activity of tyrosinase was measured with L-DOPA as a substrate using the reported spectroscopy method.[13,24] Assays were conducted in a 96-well micro-plate and a spectrophotometer reader was used to determine the absorbance.[25] Briefly, 6 μL of 1000 unit per mL tyrosinase solution was combined with potassium phosphate buffer (pH 6.5) and 1 mM KA or TPs (both dissolved in potassium phosphate buffer, pH 6.5). After pre-incubating at 25 °C for 5 min, 150 μL of 1 mM L-DOPA aqueous solution was added, followed by incubation at 25 °C for 10 min, again, before the concentration determination of DOPA quinone at 475 nm absorbance. The total volume of each reaction system was 300 μL. […] The inhibitory activity was expressed by IC50 value, which is equal to the concentration of inhibitor at 50% inhibitory rate according to the following equation:[25]1 [drawing 1] where, A is the optical density (OD475) of potassium phosphate buffer; B, C and D are the OD475 of potassium phosphate buffer with tyrosinase, with both TPs and tyrosinase, and with TPs, respectively.

[4] = diphenolase activity, L-DOPA substrate, pH 6.5, 25 °C, read-out: IC50

inactivation rate (k2) of tyrosinase [1] | oxidation rate (k1) [1] | association constant (KA) [2] | bimolecular quenching constant (κq) [2] [M⁻¹ s⁻¹] | Stern–Volmer quenching constant (KSV) [2] [M⁻¹] | binding constant (KA) [2] | IC50 [3, 4] [µM] | inactivation rate, times lower than catechin [1] [times] | slope (K) of the residual tyrosinase oxidizing L-DOPA substrate ([1]; oxygen utilization, 194 μM L-DOPA added after TP) | SMILES | partition ratio (r): molecules of inhibitor required to inactivate one molecule of tyrosinase [1] [molecules] | IC50 [3] [µM] | tyrosinase inhibitory activity, fold stronger than that of EGCG ([3]; by IC50 values) [fold]
0.016 | 0.063 | 0.04 × 10^5 | 4.8e+11 | 4800 | 0.04 ×10^5 | 57.1 |  |  | Oc1cc(O)c2c(c1)OC(c1ccc(O)c(O)c1)C(O)C2 (single isomer, unassigned; (+)) [Catechin, (+)-catechin] | 38.7 |  | 
0.004 | 0.007 | 3.07 × 10^5 | 3.13e+12 | 31300 | 3.07 ×10^5 | 142 | ~4 | 0.39 | O=C(OC1Cc2c(O)cc(O)cc2OC1c1cc(O)c(O)c(O)c1)c1cc(O)c(O)c(O)c1 (single isomer, unassigned; (-)) [EGCG, (−)-epigallocatechin-3-O-gallate] |  |  | 

SMILES | inactivation rate (k2) of tyrosinase [1] | oxidation rate (k1) [1] | association constant (KA) [2] | bimolecular quenching constant (κq) [2] [M⁻¹ s⁻¹] | Stern–Volmer quenching constant (KSV) [2] [M⁻¹] | binding constant (KA) [2] | IC50 [3, 4] [µM] | inactivation rate, times lower than catechin [1] [times] | slope (K) of the residual tyrosinase oxidizing L-DOPA substrate ([1]; oxygen utilization, 194 μM L-DOPA added after TP) | partition ratio (r): molecules of inhibitor required to inactivate one molecule of tyrosinase [1] [molecules] | IC50 [3] [µM] | tyrosinase inhibitory activity, fold stronger than that of EGCG ([3]; by IC50 values) [fold]
O=C(OC1Cc2c(O)cc(O)cc2OC1c1ccc(O)c(O)c1)c1cc(O)c(O)c(O)c1 (single isomer, unassigned; (-)) [ECG, (−)-epicatechin gallate] | 0.018 | 0.068 | 0.53 × 10^5 | 4.1e+12 | 41000 | 0.53 ×10^5 |  |  |  | 14.7 | 22.6 | 6
